Data on nine compounds can be found in patent publication US20150239831A1, “INHIBITORS OF CENTRAL NERVOUS SYSTEM VASOACTIVE INHIBITORY PEPTIDE RECEPTOR 2” (The Trustees Of Columbia University In The City Of New York, priority 2012, published 2015).

What all share (format): cell-based
Common to all, as to set-up: expressed in transfected cells; host or cells: HEK293 cells transfected with VIPR2 in pCDNA3.1 (as described)

Experiment [1] has as its target T1, VIPR2 (Homo sapiens, UniProt P41587).
T1 sequence (P41587 24-438): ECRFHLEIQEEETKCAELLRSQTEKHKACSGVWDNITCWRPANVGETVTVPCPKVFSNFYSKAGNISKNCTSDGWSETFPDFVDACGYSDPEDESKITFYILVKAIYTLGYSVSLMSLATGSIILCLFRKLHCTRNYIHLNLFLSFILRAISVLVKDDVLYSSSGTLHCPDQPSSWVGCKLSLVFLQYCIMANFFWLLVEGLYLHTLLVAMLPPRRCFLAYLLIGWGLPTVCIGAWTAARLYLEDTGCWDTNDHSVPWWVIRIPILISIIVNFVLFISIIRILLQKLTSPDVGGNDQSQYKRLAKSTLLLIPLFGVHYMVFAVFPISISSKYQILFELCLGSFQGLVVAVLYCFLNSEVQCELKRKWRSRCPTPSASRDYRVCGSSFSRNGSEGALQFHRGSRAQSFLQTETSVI
The experiment in a line: Inhibition of VIP-induced β-arrestin recruitment (% Activity Arrestin). The method in brief: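 Read-out is β-gal fragment complementation (luminescence) between ProLink-hVIPR2 and EA-β-arrestin2 in transiently transfected HEK293 cells. Cells rested overnight, then exposed to inhibitor 2 h at 37 °C before detection reagent (5 min–1 h, room temperature); values are % activity against VIP-driven recruitment.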

For experiment [2], the target named is T1, VIPR2. The experiment in a line: Inhibition of VIP-induced cAMP elevation (% Activity cAMP). In a few lines:
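HEK293 cells stably transfected with human VIPR2 were incubated with inhibitor and VIP for 30 min, then cAMP was detected by HTRF after at least 1 h at room temperature. The 665/620 nm ratio ×10,000 was calculated.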

Experiment [3] has as its target T1, VIPR2. The experiment in a line: % Activity: inhibition of VIP-induced cAMP elevation and β-arrestin recruitment (Table 2). The method in brief:
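Recruitment of β-arrestin measured by β-gal fragment complementation luminescence in HEK293 cells co-expressing VIPR2-ProLink and β-arrestin2-EA after 2 h compound at 37° C. VIP-driven cAMP rise in stable hVIPR2 HEK293 cells measured by HTRF after 30 min with inhibitor and VIP.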

In the case of `CNC(=O)[C@H](Cc1ccccc1)C[C@H](O)CNS(=O)(=O)c1ccc([N+](=O)[O-])cc1` [Compound B20], in experiment [1] (Batch 2), the inhibition at 0.5 µM was 6.9%, the inhibition at 1 µM worked out at 4% and the inhibition at 5 µM was 3.2%. In experiment [2] (Batch 2), the inhibition at 0.5 µM is 7%, the inhibition at 1 µM was found to be 8.3% and the inhibition at 5 µM is 9.3%. The “% Activity” value in experiment [3] came out at 6.25%.

On to `O=C(NCc1ccc(F)cc1F)[C@@H](Cc1ccccc1)C[C@H](O)CNS(=O)(=O)c1ccc([N+](=O)[O-])cc1` [Compound B14B], for which, in experiment [1] (Batch 2), the inhibition at 0.5 µM is 23.9%, the inhibition at 1 µM is 20% and the inhibition at 5 µM was determined as 24%. In addition, in experiment [2] (Batch 2), the inhibition at 0.5 µM is -5.4%, the inhibition at 1 µM turned out to be 4.7% and the inhibition at 5 µM was determined as 18.2%. The “% Activity” value in experiment [3] was 21.1000%.

For the compound `NC(=O)[C@H](Cc1ccccc1)C[C@H](O)CNS(=O)(=O)c1ccc([N+](=O)[O-])cc1` [Compound B12A], in experiment [1] (Batch 2), the inhibition at 0.5 µM was -6.5%, the inhibition at 1 µM was -16.6% and the inhibition at 5 µM was -23%. Also, in experiment [2] (Batch 2), the inhibition at 0.5 µM came out at 6.7%, the inhibition at 1 µM was found to be 3.6% and the inhibition at 5 µM is 2.1%. In addition, the “% Activity” value in experiment [3] was −10.45%.

In the case of `O=C(NC[C@@H](O)C[C@@H](Cc1ccccc1)C(=O)N[C@H]1c2ccccc2C[C@H]1O)c1ccc([N+](=O)[O-])cc1` [Compound A25], in experiment [1] (Batch 1), the inhibition at 0.5 µM was -0.5%, the inhibition at 1 µM amounted to 18.6% and the inhibition at 5 µM turned out to be 16.4%. In experiment [2] (Batch 1), the inhibition at 0.5 µM came to 14%, the inhibition at 1 µM is 22.3% and the inhibition at 5 µM amounted to 21.1%. The “% Activity” value in experiment [3] was found to be 18.75%.

On to `O=C(NC[C@@H](O)C[C@@H](Cc1ccccc1)C(=O)N[C@H]1c2ccccc2C[C@H]1O)C(Cl)Cl` [Compound A6], for which, in experiment [1] (Batch 1), the inhibition at 0.5 µM stood at 9.5%, the inhibition at 1 µM is 17.4% and the inhibition at 5 µM turned out to be 20%. Further, in experiment [2] (Batch 1), the inhibition at 0.5 µM came to 18.4%, the inhibition at 1 µM was 18.3% and the inhibition at 5 µM is 19.6%. For the same compound, the “% Activity” value in experiment [3] was 19.8%.

Regarding `O=C(NCc1ccccc1)[C@H](Cc1ccccc1)C[C@H](O)CNS(=O)(=O)c1ccc([N+](=O)[O-])cc1` [Compound B3A], in experiment [1] (Batch 2), the inhibition at 0.5 µM is 1.8%, the inhibition at 1 µM is 4.4% and the inhibition at 5 µM came to 24.2%. Besides, in experiment [2] (Batch 2), the inhibition at 0.5 µM is -1.1%, the inhibition at 1 µM was -1.3% and the inhibition at 5 µM was -2.9%. In addition, the “% Activity” value in experiment [3] is reported as 10.65%.

As for `CCCCNC(=O)c1ccc(S(=O)(=O)NC[C@@H](O)C[C@@H](Cc2ccccc2)C(=O)N[C@H]2c3ccccc3C[C@H]2O)cc1` [Compound X100], in experiment [1] (Batch 3), the inhibition at 0.5 µM was -0.4%, the inhibition at 1 µM was found to be 2.9% and the inhibition at 5 µM is -5.5%. Further, in experiment [2] (Batch 3), the inhibition at 0.5 µM is -0.4%, the inhibition at 1 µM is 5.9% and the inhibition at 5 µM is 20.6%. Moreover, the “% Activity” value in experiment [3] worked out at 7.55%.

Take `O=C(NC[C@@H](O)C[C@@H](Cc1ccccc1)C(=O)N[C@H]1c2ccccc2C[C@H]1O)c1cccnc1` [Compound A16]: in experiment [1] (Batch 1), the inhibition at 0.5 µM was -6.8%, the inhibition at 1 µM was -5.7% and the inhibition at 5 µM is -6.3%. Further, in experiment [2] (Batch 1), the inhibition at 0.5 µM amounted to 15.2%, the inhibition at 1 µM was 13.5% and the inhibition at 5 µM amounted to 16.4%. The “% Activity” value in experiment [3] is on record as 5.05%.

For the compound `CC(=O)Nc1ccc(S(=O)(=O)NC[C@H](C[C@@H](Cc2ccccc2)C(=O)N[C@H]2c3ccccc3C[C@H]2OC(C)=O)OC(C)=O)cc1` [Compound X090], in experiment [1] (Batch 3), the inhibition at 0.5 µM stood at 0.5%, the inhibition at 1 µM is 0.2% and the inhibition at 5 µM stood at 9.7%. For the same compound, in experiment [2] (Batch 3), the inhibition at 0.5 µM is -8.7%, the inhibition at 1 µM is -8.7% and the inhibition at 5 µM is -5.8%. The “% Activity” value in experiment [3] came out at 1.95%.
